SMILES strings stand for the structures.

The IC50 is the concentration at which inhibition is half-maximal. Low values mean greater potency, high ones weaker potency.

The target of this experiment is T1, VEGFR-3 (vascular endothelial growth factor receptor-3, Flt-4) (Homo sapiens, UniProt P35916).
T1 construct: gene FLT4
The experiment is described as follows: cell-free kinase (autophosphorylation) assay; also HUVEC cellular VEGFR-3 phosphorylation, IC50 […]. The format is biochemical.

T1 sequence (P35916 25-1363): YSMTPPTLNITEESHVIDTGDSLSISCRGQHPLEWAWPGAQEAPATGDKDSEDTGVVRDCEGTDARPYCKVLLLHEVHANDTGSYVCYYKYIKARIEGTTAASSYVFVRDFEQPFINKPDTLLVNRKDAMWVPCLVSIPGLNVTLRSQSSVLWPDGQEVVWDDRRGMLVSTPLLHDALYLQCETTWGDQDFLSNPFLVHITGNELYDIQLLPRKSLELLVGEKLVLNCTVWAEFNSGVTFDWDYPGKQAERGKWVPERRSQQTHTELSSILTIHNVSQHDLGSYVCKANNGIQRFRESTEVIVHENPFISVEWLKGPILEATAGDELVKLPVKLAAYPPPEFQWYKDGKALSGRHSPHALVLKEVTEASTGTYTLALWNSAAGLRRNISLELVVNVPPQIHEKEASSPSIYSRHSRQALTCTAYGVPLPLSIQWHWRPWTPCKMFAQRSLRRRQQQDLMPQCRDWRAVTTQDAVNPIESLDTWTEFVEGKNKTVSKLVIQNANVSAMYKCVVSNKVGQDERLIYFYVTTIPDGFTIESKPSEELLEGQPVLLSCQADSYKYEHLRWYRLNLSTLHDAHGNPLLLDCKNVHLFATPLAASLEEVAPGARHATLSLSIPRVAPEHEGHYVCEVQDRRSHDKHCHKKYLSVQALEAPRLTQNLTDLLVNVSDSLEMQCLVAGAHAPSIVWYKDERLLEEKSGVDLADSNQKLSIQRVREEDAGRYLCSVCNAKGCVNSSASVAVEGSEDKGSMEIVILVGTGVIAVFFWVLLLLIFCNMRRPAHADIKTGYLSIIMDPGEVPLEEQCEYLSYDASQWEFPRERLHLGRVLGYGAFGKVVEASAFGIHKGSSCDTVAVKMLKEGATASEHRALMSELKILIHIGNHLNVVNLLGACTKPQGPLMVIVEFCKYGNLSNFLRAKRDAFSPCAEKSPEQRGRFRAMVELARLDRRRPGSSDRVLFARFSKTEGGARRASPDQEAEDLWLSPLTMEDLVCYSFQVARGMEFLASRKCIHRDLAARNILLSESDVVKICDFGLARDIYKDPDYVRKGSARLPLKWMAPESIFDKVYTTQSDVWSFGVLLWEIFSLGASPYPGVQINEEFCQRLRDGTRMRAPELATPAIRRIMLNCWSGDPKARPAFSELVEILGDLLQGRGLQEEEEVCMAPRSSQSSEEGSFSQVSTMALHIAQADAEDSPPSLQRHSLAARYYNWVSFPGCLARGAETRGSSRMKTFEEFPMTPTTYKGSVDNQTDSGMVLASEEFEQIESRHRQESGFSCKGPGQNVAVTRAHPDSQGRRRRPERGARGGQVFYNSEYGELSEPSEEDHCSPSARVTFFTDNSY

In the case of `COc1cc2c(Oc3ccc(Nc4ccc(C(C)(C)C)cc4)cc3)ccnc2cc1OCCNCCO` [Ki23057], the IC50 came out at 4.3 nM.

The values above are taken from article PMC2768106, “Effects of VEGFR-3 phosphorylation inhibitor on lymph node metastasis in an orthotopic diffuse-type gastric carcinoma model” (British Journal of Cancer, 2009).
